System: human myelogenous leukemic cells (HL-60)
Assay: Test on inhibition of proliferation using human myelogenous leukemic cells (HL-60)
Assay type: cell-based
Details: for Percentage Inhibition: HL-60, compound at 5 pg/ml, 4 days at 37 C, relative to control (0.1% ethanol); for Surviving Cell Number: HL-60, start 1 x 10^5 cells/ml, compound at 5 pg/ml, stationary culture at 37 C for 4 days, Trypan Blue staining, control 29.4 x 10^4
Method: rest on Inhibition of Proliferation Using Human Myeloqenous Leukemic Cells (HL-60)
The test on the inhibition of proliferation of human myelogenous leukemic cells was conducted by a well-known method. The human myelogenous leukemic cells (HL-60) were added to an RPMI culture solution containing 10% bovine fetal serum, the number of cells in the culture solution was adjusted to 1 x 10^5 cells/ml, a solution in ethanol of the compound under test was added to give a concentration of 5 pg/ml, and the mixture was subjected to stationary culture at 37 C for 4 days. As a control, a culture solution to which 0.1% of ethanol had been added was similarly cultured. After the cultivation, the culture solutions were stained by the Trypan Blue staining method and the surviving cell number was measured to determine the percentage inhibition relative to the control.

Molecule: CCCCCC=CC=C1C(=O)C[C@H](O)[C@@H]1CC(=O)CCCCC(=O)OC [(12EZ,14EZ)-(9α)-6,11-Dioxo-9-hydroxyprosta-12,14-dienoic acid methyl ester]
- Percentage Inhibition: 100%
- Surviving Cell Number: 0 cells/ml

Molecule: Methyl (13E)-(9α,15S)-6,11-dioxo-9,15- dihvdroxvprost-13-enoate [6-Keto-PGD1 methyl ester]
- Percentage Inhibition: 100%
- Surviving Cell Number: 0 cells/ml

Molecule: CCCCCC=CC=C1C(=O)C=C[C@@H]1CC(=O)CCCCC(=O)OC [Methyl (9Z,12EZ,14EZ)-6,11-dioxoprosta-9,12,14-trienoate]
- Percentage Inhibition: 100%
- Surviving Cell Number: 0 cells/ml
